In US10562891B2, “Quinazolinones as PARP14 inhibitors” (Ribon Therapeutics Inc., priority 2017, dated 2020):
Counter-ions that a name gives are not always drawn.

Target: catalytic domain of human PARP14 (Homo sapiens (Human), UniProt Q460N5)
Assay: Enzymatic assay for inhibition of PARP14 (DELFIA, auto-modification with biotin-NAD)
Assay type: biochemical
Details: auto-modification of PARP14 by biotin-NAD, 50 nM PARP14, 3 μM biotin-NAD
In short: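 DELFIA auto-modification read-out: europium-streptavidin bound to biotin-NAD incorporated onto nickel-captured His-TEV PARP14 catalytic domain. Compound preincubated 30 min, then 50 nM enzyme with 3 μM biotin-NAD reacted 3 h, all at 25 °C, pH 8, then NAD quench. Percent inhibition normalized to rucaparib/DMSO wells, fitted (4- or 3-parameter) for IC50.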

Chain of catalytic domain of human PARP14 (Q460N5 1611-1801): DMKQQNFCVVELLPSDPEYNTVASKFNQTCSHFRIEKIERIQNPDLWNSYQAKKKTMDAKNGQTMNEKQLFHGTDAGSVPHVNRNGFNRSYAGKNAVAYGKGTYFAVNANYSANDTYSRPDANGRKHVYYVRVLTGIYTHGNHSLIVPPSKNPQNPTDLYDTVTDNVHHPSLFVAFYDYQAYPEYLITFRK

SMILES	IC50 [nM]
O=c1[nH]c(CS[C@H]2CC[C@H](O)CC2)nc2cc(NC3CCCC3)cc(C(F)(F)F)c12 [Example 199, 7-(cyclopentylamino)-2-((((1R,4R)-4-hydroxycyclohexyl)thio)methyl)-5-(trifluoromethyl)quinazolin-4(3H)-one]	< 1000
O=c1[nH]c(CSC2CCNCC2)nc2cc(NC3CCCC3)cc(Cl)c12 [Example 206, 5-Chloro-7-(cyclopentylamino)-2-((piperidin-4-ylthio)methyl)quinazolin-4(3H)-one Hydrochloride]	< 1000
COc1cc(NC2CCCC2)cc2nc(CSC3CCOCC3)[nH]c(=O)c12 [Example 207, 7-(Cyclopentylamino)-5-methoxy-2-(((tetrahydro-2H-pyran-4-yl)thio)methyl)quinazolin-4(3H)-one]	> 10000
O=c1[nH]c(CS[C@@H]2CCNC[C@H]2F)nc2cc(NC3CCCC3)cc(F)c12 [Example 211b, 7-(Cyclopentylamino)-5-fluoro-2-((((3R,4R)-3-fluoropiperidin-4-yl)thio)methyl)quinazolin-4(3H)-one]	< 1000
O=c1[nH]c(CS[C@@H]2CCNC[C@@H]2F)nc2cc(NC3CCCC3)cc(F)c12 [Example 213b, 7-(cyclopentylamino)-5-fluoro-2-((((3S,4R)-3-fluoropiperidin-4-yl)thio)methyl)quinazolin-4(3H)-one]	< 1000
O=c1[nH]c(CSC2CCCCC2)nc2cc(NC3CCCC3)cc(F)c12 [Example 215, 2-((Cyclohexylthio)methyl)-7-(cyclopentylamino)-5-fluoroquinazolin-4(3H)-one]	< 1000
CN(C)C(=O)N1CCC(SCc2nc3cc(NC4CCCC4)cc(F)c3c(=O)[nH]2)CC1 [Example 220, 4-(((7-(Cyclopentylamino)-5-fluoro-4-oxo-3,4-dihydroquinazolin-2-yl)methyl)thio)-N,N-dimethylpiperidine-1-carboxamide]	< 1000
O=c1[nH]c(CSC2CCOCC2)nc2cc(NC3CCCC3)cc(CF)c12 [Example 225, 7-(cyclopentylamino)-5-(fluoromethyl)-2-(((tetrahydro-2H-pyran-4-yl)thio)methyl)quinazolin-4(3H)-one]	> 10000
O=c1[nH]c(CSC2CCNCC2)nc2cc(NC3CCCC3)c(F)cc12 [Example 226, 7-(Cyclopentylamino)-6-fluoro-2-((piperidin-4-ylthio)methyl)quinazolin-4(3H)-one hydrochloride]	< 1000
O=c1[nH]c(CSC2CCNCC2)nc2nc(OCC3CC3)ccc12 [Example 229, 7-(Cyclopropylmethoxy)-2-((piperidin-4-ylthio)methyl)pyrido[2,3-d]pyrimidin-4(3H)-one Hydrochloride]	< 1000
COc1cc2c(=O)[nH]c(CSC3CCNCC3)nc2cc1NCC1CCC1 [Example 230, 7-((Cyclobutylmethyl)amino)-6-methoxy-2-((piperidin-4-ylthio)methyl)quinazolin-4(3H)-one Hydrochloride]	1000 to 10000
O=c1[nH]c(CSC2CCOCC2)nc2cc(NC3CCCC3(F)F)cc(F)c12 (stereo not shown) [Example 231, 7-((2,2-Difluorocyclopentyl)amino)-5-fluoro-2-(((tetrahydro-2H-pyran-4-yl)thio)methyl)quinazolin-4(3H)-one]	< 1000

The remaining lines, values ahead:

IC50 [nM]	SMILES
< 1000	O=c1[nH]c(CSC2CCOCC2)nc2cc(OC3CCCC3)ccc12 [Example 197, 7-(cyclopentyloxy)-2-(((tetrahydro-2H-pyran-4-yl)thio)methyl)quinazolin-4(3H)-one]
1000 to 10000	Cc1cccc2c(=O)[nH]c(CSC3CCCOCC3)nc12 (stereo not shown) [Example 198, 8-methyl-2-((oxepan-4-ylthio)methyl)quinazolin-4(3H)-one]
< 1000	O=c1[nH]c(CSC2CCNCC2)nc2cc(NC3CCC3)ccc12 [Example 200, 7-(cyclobutylamino)-2-((piperidin-4-ylthio)methyl)quinazolin-4(3H)-one]
< 1000	CS(=O)(=O)N1CCC[C@@H](Nc2ccc3c(=O)[nH]c(CSC4CCOCC4)nc3n2)C1 [Example 201, (R)-7-((1-(methylsulfonyl)piperidin-3-yl)amino)-2-(((tetrahydro-2H-pyran-4-yl)thio)methyl)pyrido[2,3-d]pyrimidin-4(3H)-one]
1000 to 10000	CC(C)Cc1ccc2c(=O)[nH]c(CSC3CCOCC3)nc2c1 [Example 202, 7-Isobutyl-2-(((tetrahydro-2H-pyran-4-yl)thio)methyl)quinazolin-4(3H)-one]
< 1000	Cc1cc(NC2CCCC2)cc2nc(CSC3CCOCC3)[nH]c(=O)c12 [Example 203, 7-(Cyclopentylamino)-5-methyl-2-(((tetrahydro-2H-pyran-4-yl)thio)methyl) quinazolin-4(3H)-one]
1000 to 10000	Cc1cccc2c(=O)[nH]c(CS[C@H]3CC[C@@H](C(N)=O)CC3)nc12 [Example 204, cis-4-(((8-Methyl-4-oxo-3,4-dihydroquinazolin-2-yl)methyl)thio)cyclohexane-1-carboxamide]
< 1000	Cc1cccc2c(=O)[nH]c(CS[C@H]3CC[C@H](C(N)=O)CC3)nc12 [Example 205, trans-4-(((8-Methyl-4-oxo-3,4-dihydroquinazolin-2-yl)methyl)thio)cyclohexane-1-carboxamide]
< 1000	COC(=O)N1CCC(SCc2nc3cc(NC4CCCC4)ccc3c(=O)[nH]2)CC1 [Example 208, Methyl 4-(((7-(cyclopentylamino)-4-oxo-3,4-dihydroquinazolin-2-yl)methyl)thio)piperidine-1-carboxylate]
< 1000	Cc1cccc2c(=O)[nH]c(CS[C@H]3CC[C@H](CC(N)=O)CC3)nc12 [Example 209, 2-((trans)-4-(((8-Methyl-4-oxo-3,4-dihydroquinazolin-2-yl)methyl)thio)cyclohexyl) acetamide]
< 1000	O=C(CO)N1CCC(SCc2nc3cc(NC4CCCC4)cc(F)c3c(=O)[nH]2)CC1 [Example 214, 7-(Cyclopentylamino)-5-fluoro-2-(((1-(2-hydroxyacetyl)piperidin-4-yl)thio)methyl)quinazolin-4(3H)-one]
1000 to 10000	O=c1[nH]c(CS[C@H]2CC[C@@H](C(=O)O)CC2)nc2cc(NC3CCCC3)cc(F)c12 [Example 216, cis-4-(((7-(Cyclopentylamino)-5-fluoro-4-oxo-3,4-dihydroquinazolin-2-yl)methyl)thio)cyclohexane-1-carboxylic acid]
< 1000	O=c1[nH]c(CS[C@H]2CC[C@H](C(=O)O)CC2)nc2cc(NC3CCCC3)cc(F)c12 [Example 217, trans-4-(((7-(Cyclopentylamino)-5-fluoro-4-oxo-3,4-dihydroquinazolin-2-yl)methyl)thio)cyclohexane-1-carboxylic acid]
< 1000	NC(=O)[C@H]1CC[C@H](SCc2nc3cc(NC4CCCC4)cc(F)c3c(=O)[nH]2)CC1 [Example 218, trans-4-(((7-(Cyclopentylamino)-5-fluoro-4-oxo-3,4-dihydroquinazolin-2-yl)methyl)thio)cyclohexane-1-carboxamide]
< 1000	O=c1[nH]c(CSC2CCOCC2)nc2cc(OCC3CC3)ccc12 [Example 219, 7-(Cyclopropylmethoxy)-2-(((tetrahydro-2H-pyran-4-yl)thio)methyl)quinazolin-4(3H)-one]
1000 to 10000	O=c1[nH]c(CSC2CCOCC2)nc2cc(NC3CCCC3)cc(CO)c12 [Example 224, 7-(Cyclopentylamino)-5-(hydroxymethyl)-2-(((tetrahydro-2H-pyran-4-yl)thio)methyl)quinazolin-4(3H)-one]
